Measurements as given in PMC6985185 (Breast cancer research and treatment, 2019).

Legend:
[1] = system: uterus; experiment: Uterine wet weight in LTED tumor bearing mice; assay type: in vivo, Nu:J mice; conditions: ovariectomized LTED tumor bearing mice, after 4 weeks of treatment at the LTED study doses
[2] = system: TamR xenograft tumors; experiment: TamR Study 2: growth of tamoxifen-resistant xenograft tumors under oral SERDs

SMILES: C[C@@H]1Cc2c([nH]c3ccccc23)[C@@H](c2c(F)cc(/C=C/C(=O)O)cc2F)N1CC(C)(C)F [AZD9496]
- Uterine wet weight (measure of uterine stimulation) [1]: significantly increased uterine weight
- % tumor growth inhibition of TamR tumors ([2]; AZD9496 10 mg/kg po qd, day 0 of treatment): −3%
- % tumor growth inhibition of TamR tumors ([2]; AZD9496 10 mg/kg po qd, day 2 of treatment): 13%
- % tumor growth inhibition of TamR tumors ([2]; AZD9496 10 mg/kg po qd, day 4 of treatment): 18%
- % tumor growth inhibition of TamR tumors ([2]; AZD9496 10 mg/kg po qd, day 7 of treatment): 27%
- % tumor growth inhibition of TamR tumors ([2]; AZD9496 10 mg/kg po qd, day 9 of treatment): 24%
- % tumor growth inhibition of TamR tumors ([2]; AZD9496 10 mg/kg po qd, day 11 of treatment): 30%
- % tumor growth inhibition of TamR tumors ([2]; AZD9496 10 mg/kg po qd, day 14 of treatment): 31%
- % tumor growth inhibition of TamR tumors ([2]; AZD9496 10 mg/kg po qd, day 16 of treatment): 32%
- % tumor growth inhibition of TamR tumors ([2]; AZD9496 10 mg/kg po qd, day 18 of treatment): 36%
- % tumor growth inhibition of TamR tumors ([2]; AZD9496 10 mg/kg po qd, day 21 of treatment): 43%
- % tumor growth inhibition of TamR tumors ([2]; AZD9496 10 mg/kg po qd, day 23 of treatment): 47%
- % tumor growth inhibition of TamR tumors ([2]; AZD9496 10 mg/kg po qd, day 25 of treatment): 46%
- % tumor growth inhibition of TamR tumors ([2]; AZD9496 10 mg/kg po qd, day 28 of treatment): 43%

SMILES: CC/C(=C(/c1ccc(/C=C/C(=O)O)cc1)c1ccc2[nH]ncc2c1)c1ccc(F)cc1Cl [GDC0810]
- Uterine wet weight (measure of uterine stimulation) [1]: significantly increased uterine weight
- % tumor growth inhibition of TamR tumors ([2]; GDC0810 25 mg/kg po qd, day 0 of treatment): −5%
- % tumor growth inhibition of TamR tumors ([2]; GDC0810 25 mg/kg po qd, day 2 of treatment): 11%
- % tumor growth inhibition of TamR tumors ([2]; GDC0810 25 mg/kg po qd, day 4 of treatment): 22%
- % tumor growth inhibition of TamR tumors ([2]; GDC0810 25 mg/kg po qd, day 7 of treatment): 28%
- % tumor growth inhibition of TamR tumors ([2]; GDC0810 25 mg/kg po qd, day 9 of treatment): 27%
- % tumor growth inhibition of TamR tumors ([2]; GDC0810 25 mg/kg po qd, day 11 of treatment): 35%
- % tumor growth inhibition of TamR tumors ([2]; GDC0810 25 mg/kg po qd, day 14 of treatment): 32%
- % tumor growth inhibition of TamR tumors ([2]; GDC0810 25 mg/kg po qd, day 16 of treatment): 42%
- % tumor growth inhibition of TamR tumors ([2]; GDC0810 25 mg/kg po qd, day 18 of treatment): 51%
- % tumor growth inhibition of TamR tumors ([2]; GDC0810 25 mg/kg po qd, day 21 of treatment): 49%
- % tumor growth inhibition of TamR tumors ([2]; GDC0810 25 mg/kg po qd, day 23 of treatment): 53%
- % tumor growth inhibition of TamR tumors ([2]; GDC0810 25 mg/kg po qd, day 25 of treatment): 53%
- % tumor growth inhibition of TamR tumors ([2]; GDC0810 25 mg/kg po qd, day 28 of treatment): 52%

SMILES: N#Cc1ccc(C(c2ccc(C#N)cc2)n2cncn2)cc1 [Letrozole, letrozole]
- Uterine wet weight (measure of uterine stimulation) [1]: no response of uterine weight
